From patent US7915293B2, “Ubiquitin ligase inhibitors” (Rigel Pharmaceuticals, Inc., priority 2003, dated 2011)

What was measured:
Design in all cases: key: “+” indicates that the compound exibits inhibitory activity; “−” indicates that low or no inhibitory activity was observed
[1] = tested on: H1299 cells; test: Cell proliferation assay, photographic image analysis of proliferation, apoptosis and death (PAD assay), H1299; assay type: cell-based; details: 6 concentrations tested
Description: (§1) A549 (ATCC# CCL-185), HeLa (ATCC# CCL-2), HCT116 (ATCC# CCL-247), and H1299 (ATCC# CRL-5803) cells were maintained in T175 flasks following the ATCC recommended media and handling procedures. Flasks reaching approximately 70% confluency were trypsinized and resuspended in RPMI media (Cell-Gro catalog number 10-040-CM) modified to contain 5% FBS, 100 ug/mlPen/Strep (Cell-Gro catalog number 30-002-CL), and 0.3 mg/ml L-Glutamine (Cell-Gro catalog number 25-003-CL). A 20,000 cells/ml solution was made for plating. Cells were plated in black Packard 96 well plates by placing 100 μl per well (2,000 cells per well).
(§2) Compounds and additional media were added 24 hours after cell plating. A compound master plate was created with concentrations 500 times greater than the final concentration added to the cells. All compound testing was done in duplicate using 6.3 fold dilutions starting with 10 mM. All outside wells (and 4 internal wells) were DMSO controls. Taxol and at least one additional control were run on all plates. Three microliters of the compound master plate were added to deep well blocks containing 750 μl of RPMI media. One hundred microliters were transferred from the compound/media deep well blocks to the plated cells resulting in a 500 fold dilution of the compounds. Cells were grown at 37° C., 5% CO2 for 48 hours.
(§3) Cells to be analyzed by photography were fixed and stained. One hundred microliters of media were removed and 100 μl of 9.3% […] was added to each well. Plates were left on the benchtop for 45 minutes. A staining solution containing 1.55 μl of 1 mg/ml DAPI added to 18.75 ml PBS was warmed for 15 minutes at 37° C. The cells were aspirated prior to washing with 100 μl of PBS. Seventy microliters of PBS were aspirated and 170 μl of the DAPI solution were added to each well of fixed cells. Plates were left at room temperature for one hour then aspirated and washed twice with 100 μl of PBS. The stained cells were left at 4° C. for a minimum of 16 hours before photographic analysis with Array Scan II (Cellomics). Analysis of the photographic images to determine numbers of live cells (proliferation), apoptotic cells and dead cells, were according to the methods described in U.S. Provisional Patent Application Ser. No. 60/406,714, which incorporated herein in its entirety.

[2] = tested on: A549 cells; test: Cell proliferation assay, photographic image analysis of proliferation, apoptosis and death (PAD assay), A549; assay type: cell-based; details: 6 concentrations tested
How it was run: (§4)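 Cells grown in RPMI with 5% FBS (2,000/well) and dosed 24 h after plating with 6.3-fold dilutions in duplicate (master plate 500× final, top 10 mM stock). After 48 h at 37 °C, cells formamide-fixed and DAPI-stained. Image analysis counted live, apoptotic and dead cells.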

[3] = target: E3 (His-APC11/APC2-"APC") (Homo sapiens, UniProt Q9NYG5+Q9UJX6); test: Plate-based E3 ligase assay (APC FLAG), auto-ubiquitination; assay type: biochemical; details: 8 concentrations tested
How it was run: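 His-APC11/APC2 auto-ubiquitination was run in casein-blocked nickel plates for 1 h at room temperature, with E1 at 5 ng/well, UbcH5c at 20 ng/well and APC at 100 ng/well. Buffer was 62.5 mM Tris pH 7.6, 3 mM MgCl2, 1 mM DTT, 2.5 mM ATP and Flag-ubiquitin at 100 ng/well. Detection used anti-Flag/HRP chemiluminescence, and IC50 was typically from 6 or 8 concentrations versus a DMSO control.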

[4] = tested on: HeLa cells; test: Cell proliferation assay, photographic image analysis of proliferation, apoptosis and death (PAD assay), HeLa; assay type: cell-based; details: 6 concentrations tested
How it was run: as §4

[5] = tested on: HCT116 cells; test: Cell proliferation assay, photographic image analysis of proliferation, apoptosis and death (PAD assay), HCT116; assay type: cell-based; details: 6 concentrations tested
Description: as §1, §2, §3

[6] = target: MDM2 / p53 substrate (Homo sapiens, UniProt Q00987); test: Plate-based MDM2 substrate ligation assay (MDM2-P53-FLAG); assay type: biochemical; details: 8 concentrations tested
Source text: This assay was preformed essentially as described in WO 03/076899 (page 77, line 5 to page 80, line 13), hereby incorporated by reference in its entirety.

[7] = tested on: HCT116 cells; test: Non-photographic proliferation analysis (Promega Cell titer Aqueous), HCT116; assay type: cell-based; details: 6 concentrations tested
Description: as §1, §2
Some cell plates were treated with Promega Cell titer Aqueous 1 kit (promega—VWR catalog number G3580). In this case, 48 hours after the test compound were added, 100 μl of media were removed and 20 μl of cell titer reagent were added to all wells. Plates were incubated at 37° C. for 45 minutes prior to absorbance reads on the Wallac plate reader at 490 nm for 0.1 sec/well.

[8] = tested on: HeLa cells; test: Non-photographic proliferation analysis (Promega Cell titer Aqueous), HeLa; assay type: cell-based; details: 6 concentrations tested
How it was run: (§5)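 HeLa, A549 and HCT116 cells, 2,000 per well in RPMI with 5% FBS, were given compounds 24 h after plating as 6.3-fold duplicate dilutions from 10 mM stock, diluted 500-fold into the wells. After 48 h at 37° C, 5% CO2, Cell titer Aqueous reagent was added for 45 min and absorbance read at 490 nm.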

[9] = tested on: A549 cells; test: Non-photographic proliferation analysis (Promega Cell titer Aqueous), A549; assay type: cell-based; details: 6 concentrations tested
How it was run: as §5

E3 (His-APC11/APC2-"APC"), sequence (Q9NYG5 whole entry): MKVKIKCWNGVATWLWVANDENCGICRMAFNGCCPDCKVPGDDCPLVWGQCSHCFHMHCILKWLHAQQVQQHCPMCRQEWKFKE
E3 (His-APC11/APC2-"APC"), sequence (Q9UJX6 whole entry): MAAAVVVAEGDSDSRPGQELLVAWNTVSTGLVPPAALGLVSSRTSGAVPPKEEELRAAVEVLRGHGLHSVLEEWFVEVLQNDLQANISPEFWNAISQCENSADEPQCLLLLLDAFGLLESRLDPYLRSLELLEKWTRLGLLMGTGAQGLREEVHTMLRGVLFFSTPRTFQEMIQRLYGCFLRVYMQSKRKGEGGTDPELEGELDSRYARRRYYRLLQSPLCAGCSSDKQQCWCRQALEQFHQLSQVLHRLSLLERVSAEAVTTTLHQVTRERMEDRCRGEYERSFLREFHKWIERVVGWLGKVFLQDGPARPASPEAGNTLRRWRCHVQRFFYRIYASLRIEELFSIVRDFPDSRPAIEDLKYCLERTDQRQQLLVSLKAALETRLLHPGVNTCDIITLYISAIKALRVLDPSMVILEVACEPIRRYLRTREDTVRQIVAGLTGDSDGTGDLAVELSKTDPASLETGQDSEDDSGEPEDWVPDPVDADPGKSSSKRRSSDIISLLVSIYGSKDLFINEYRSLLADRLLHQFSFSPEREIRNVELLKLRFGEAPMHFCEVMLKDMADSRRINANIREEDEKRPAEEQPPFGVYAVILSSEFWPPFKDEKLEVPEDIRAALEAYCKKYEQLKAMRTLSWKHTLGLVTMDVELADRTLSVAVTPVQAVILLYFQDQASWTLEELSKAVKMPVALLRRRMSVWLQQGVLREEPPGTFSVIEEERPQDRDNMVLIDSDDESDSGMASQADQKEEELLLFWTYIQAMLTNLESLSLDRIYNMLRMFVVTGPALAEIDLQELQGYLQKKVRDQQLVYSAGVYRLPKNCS
MDM2 / p53 substrate, sequence (Q00987 whole entry): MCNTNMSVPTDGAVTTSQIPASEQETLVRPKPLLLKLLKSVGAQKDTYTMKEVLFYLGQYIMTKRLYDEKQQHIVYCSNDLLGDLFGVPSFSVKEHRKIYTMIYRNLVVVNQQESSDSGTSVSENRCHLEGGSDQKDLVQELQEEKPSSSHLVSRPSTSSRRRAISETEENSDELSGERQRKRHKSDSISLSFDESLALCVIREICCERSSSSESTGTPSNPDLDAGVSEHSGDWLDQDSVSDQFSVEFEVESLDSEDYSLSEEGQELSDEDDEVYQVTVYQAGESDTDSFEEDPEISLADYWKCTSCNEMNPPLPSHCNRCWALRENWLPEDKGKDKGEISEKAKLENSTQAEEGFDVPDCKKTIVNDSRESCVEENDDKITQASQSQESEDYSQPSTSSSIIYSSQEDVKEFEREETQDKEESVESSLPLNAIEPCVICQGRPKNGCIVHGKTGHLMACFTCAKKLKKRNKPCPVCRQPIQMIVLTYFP

O=S(=O)(Nc1cc(Cl)ccc1C(F)(F)F)c1cc(Cl)c(Oc2ccc(Cl)cc2Cl)c(Cl)c1 [Compound 249, 3,5-dichloro-N-[5-chloro-2-(trifluoromethyl)phenyl]-4-(2,4-dichlorophenoxy) benzenesulfonamide]
PAD Assay, H1299 6 pt [1]: +
PAD Assay, A549 6 pt [2]: +
APC Flag 8 pt [3]: +
PAD Assay, HELA 6 pt [4]: +

O=[N+]([O-])c1ccc(Oc2c(Cl)cc(S(=O)(=O)Nc3cc(C(F)(F)F)ccc3Cl)cc2Cl)c(Cl)c1 [Compound 243, 3,5-dichloro-4-(2-chloro-4-nitrophenoxy)-N-(2-chloro-5-(trifluoromethyl)phenyl]benzenesulfonamide]
PAD Assay, HCT116 6 pt [5]: +
PAD Assay, H1299 6 pt [1]: +
PAD Assay, A549 6 pt [2]: +
APC Flag 8 pt [3]: +
PAD Assay, HELA 6 pt [4]: +

O=[N+]([O-])c1ccc(Oc2c(Cl)cc(S(=O)(=O)Nc3ccc(F)cc3)cc2Cl)c(Cl)c1 [Example 23, 3,5-dichloro-4-(2-chloro-4-nitrophenoxy)-N-(4-fluorophenyl)benzenesulfonamide]
MDM2-P53 Flag 8 pt [6]: −
PAD Assay, A549 6 pt [2]: +
Cell Titer-Aqueous, HCT116 6 pt [7]: +
APC Flag 8 pt [3]: +
Cell Titer-Aqueous, HELA 6 pt [8]: +
Cell Titer-Aqueous, A549 6 pt [9]: +
PAD Assay, HELA 6 pt [4]: +

O=[N+]([O-])c1ccc(Oc2c(Cl)cc(S(=O)(=O)Nc3cccc(Cl)c3)cc2Cl)c(Cl)c1 [Compound 154, 3,5-dichloro-4-(2-chloro-4-nitrophenoxy)-N-(3-chlorophenyl)benzenesulfonamide]
PAD Assay, HCT116 6 pt [5]: −
PAD Assay, A549 6 pt [2]: −
Cell Titer-Aqueous, HCT116 6 pt [7]: −
APC Flag 8 pt [3]: +
Cell Titer-Aqueous, HELA 6 pt [8]: +
Cell Titer-Aqueous, A549 6 pt [9]: +
PAD Assay, HELA 6 pt [4]: −

O=[N+]([O-])c1ccc(Oc2c(Cl)cc(S(=O)(=O)Nc3ccc(Cl)c(Cl)c3)cc2Cl)c(Cl)c1 [Compound 167, 3,5-dichloro-4-(2-chloro-4-nitrophenoxy)-N-(3,4-dichlorophenyl)benzenesulfonamide]
PAD Assay, H1299 6 pt [1]: +
PAD Assay, A549 6 pt [2]: +
APC Flag 8 pt [3]: +
Cell Titer-Aqueous, HELA 6 pt [8]: +
Cell Titer-Aqueous, A549 6 pt [9]: +
PAD Assay, HELA 6 pt [4]: +

O=[N+]([O-])c1ccc(Oc2c(Cl)cc(S(=O)(=O)Nc3cccc(C(F)(F)F)c3)cc2Cl)c(Cl)c1 [Example 7, 3,5-dichloro-4-(2-chloro-4-nitrophenoxy)-N-[3-(trifluoromethyl)phenyl]benzene-sulfonamide]
MDM2-P53 Flag 8 pt [6]: −

O=[N+]([O-])c1ccc(Oc2c(Cl)cc(S(=O)(=O)Nc3cc(F)ccc3C(F)(F)F)cc2Cl)c(Cl)c1 [Example 235, 3,5-dichloro-4-(2-chloro-4-nitrophenoxy)-N-[5-fluoro-2-(trifluoromethyl)phenyl] benzenesulfonamide]
PAD Assay, H1299 6 pt [1]: +
PAD Assay, A549 6 pt [2]: +
APC Flag 8 pt [3]: +
PAD Assay, HELA 6 pt [4]: +

Cc1c(Cl)cccc1NS(=O)(=O)c1cc(Cl)c(Oc2ccc([N+](=O)[O-])cc2Cl)c(Cl)c1 [Example 147, 3,5-dichloro-N-(3-chloro-2-methylphenyl)-4-(2-chloro-4-nitrophenoxy)benzene-sulfonamide]
PAD Assay, A549 6 pt [2]: +
Cell Titer-Aqueous, HCT116 6 pt [7]: +
APC Flag 8 pt [3]: +
Cell Titer-Aqueous, HELA 6 pt [8]: +
Cell Titer-Aqueous, A549 6 pt [9]: +
PAD Assay, HELA 6 pt [4]: +

O=S(=O)(Nc1cc(C(F)(F)F)ccc1Cl)c1ccc(Oc2ncc(C(F)(F)F)cc2Cl)cc1 [Compound 254, N-[2-chloro-5-(trifluoromethyl)phenyl]-4-{[3-chloro-5-(trifluoromethyl)pyridin-2-yl]oxy}benzenesulfonamide]
PAD Assay, HCT116 6 pt [5]: +
PAD Assay, H1299 6 pt [1]: +
PAD Assay, A549 6 pt [2]: +
APC Flag 8 pt [3]: +
PAD Assay, HELA 6 pt [4]: +

O=[N+]([O-])c1ccc(Oc2c(Cl)cc(S(=O)(=O)Nc3cc(Cl)cc(Cl)c3)cc2Cl)c(Cl)c1 [Example 24, 3,5-dichloro-4-(2-chloro-4-nitrophenoxy)-N-(3,5-dichlorophenyl)benzenesulfonamide]
MDM2-P53 Flag 8 pt [6]: +
PAD Assay, A549 6 pt [2]: −
APC Flag 8 pt [3]: +

O=C(NCC1CC1)c1ccccc1NS(=O)(=O)c1cc(Cl)c(Oc2ccc([N+](=O)[O-])cc2Cl)c(Cl)c1 [Example 123, N-(cyclopropylmethyl)-2-({[3,5-dichloro-4-(2-chloro-4-nitrophenoxy)phenyl]sulfonyl}amino)benzamide]
MDM2-P53 Flag 8 pt [6]: −
PAD Assay, A549 6 pt [2]: +
Cell Titer-Aqueous, HCT116 6 pt [7]: +
APC Flag 8 pt [3]: +
Cell Titer-Aqueous, HELA 6 pt [8]: +
Cell Titer-Aqueous, A549 6 pt [9]: +
PAD Assay, HELA 6 pt [4]: +

O=[N+]([O-])c1ccc(Oc2ccc(S(=O)(=O)Nc3cc(C(F)(F)F)ccc3Cl)cc2Cl)c(C(F)(F)F)c1 [Compound 264]
PAD Assay, H1299 6 pt [1]: +
PAD Assay, A549 6 pt [2]: +
APC Flag 8 pt [3]: +
PAD Assay, HELA 6 pt [4]: +

O=S(=O)(Nc1cc(Cl)ccc1Cl)c1ccc(Oc2ncc(C(F)(F)F)cc2Cl)cc1 [Example 253, 4-{[3-chloro-5-(trifluoromethyl)pyridin-2-yl]oxy}-N-(2,5-dichlorophenyl)benzene-sulfonamide]
PAD Assay, HCT116 6 pt [5]: +
PAD Assay, H1299 6 pt [1]: +
PAD Assay, A549 6 pt [2]: +
APC Flag 8 pt [3]: +
PAD Assay, HELA 6 pt [4]: +
